“Also recorded” adds a separate entry of the source. Where two headings read alike, the source gives them in different places.
Experiments:
BJ fibroblasts [1] = experiment: in vitro transdifferentiation of fibroblasts to induced endothelial cells (iECs); assay type: cell-based, human; conditions: fibroblasts exposed during transdifferentiation protocol
From the text: Innate immune activation is required for transdifferentiation. […] 131 (3): p. 300-9). iECs generated from this protocol manifest high fidelity for endothelial lineage. They incorporate acetylated LDL (FIG. 2B), form tubular networks (FIG. 2C), have similar transcriptomes as genuine endothelial cells, and increase capillary density and perfusion when injected into the ischemic hindlimb of the mouse (FIG. 2D) (Sayed, N., et al., Circulation, 2015. 131 (3): p. 300-9). This protocol can be utilized to study the role of O-GlcNAcylation in transdifferentiation in vitro.
O-GlcNAcylation is required for in vitro transdifferentiation. To define if the elevation of O-GlcNAcylation is required for transdifferentiation, fibroblasts were exposed to Thiamet G (TMG) (an OGA inhibitor that enhances O-GlcNAcylation) or DON (an inhibitor for GFAT that acts upstream in the hexosamine biosynthesis pathway and reduces O-GlcNAcylation). The number of iECs generated during transdifferentiation is increased when fibroblasts are exposed to TMG and decreased when exposed to DON (FIG. 5A). […] The role of O-GlcNAcylation of specific epigenetic regulars e.g., HIRA during transdifferentiation can also be addressed.
To define if the elevation of O-GlcNAcylation is required for transdifferentiation, inhibitors of O-GlcNAcylation including OSMI (an inhibitor for OGT) and DON (an inhibitor for GFAT that acts upstream in the hexosamine biosynthesis pathway and reduces O-GlcNAcylation) or an activator of O-GlcNAcylation. Thiamet G (TMG) (an OGA inhibitor that enhances O-GlcNAcylation), were delivered to BJ fibroblasts undergoing transdifferentiation. The number of CD31 expressing iECs generated during transdifferentiation decreases when exposed to OSMI or DON and increases when fibroblasts are exposed to TMG (FIG. 17B). Then OGT or OGA were knocked down using shRNA in the BJ fibroblasts (FIG. 17C) and performed transdifferentiation protocol in vitro.

[2] = system: ischemic hindlimb mice model; experiment: hindlimb ischemia recovery in WT C57BL/6 mice, laser doppler imaging; assay type: in vivo, mouse; conditions: TMG 10 mg/kg 0, 1, 2 days post-surgery; older mice (around 20 weeks)
Protocol: O-GlcNAcylation manipulations regulated recovery from tissue ischemia. To determine if the change in O-GlcNAcylation can modulate limb ischemia recovery, and contributes to vascular recovery, WT C57BL/6 mice were treated with the O-GlcNAcylation inhibitor, OSMI4, or O-GlcNAcylation enhancer, TMG 0, 1, 2 days post-surgery. Age is an important factor that determines recovery, and younger mice are known to have a more robust angiogenic response as compared with older mice. Accordingly, younger mice (between 8 to 12 weeks) were used to assess the impairment of angiogenesis by OSMI (which reduces O-GlcNAcylation). Older mice (around 20 weeks) were used to assess the enhancement of angiogenesis by TMG (which increases O-GlcNAcylation). […] It will be determined whether this beneficial effect is mediated by increased DNA accessibility and enhanced transdifferentiation.
To determine if O-GlcNAcylation manipulations can modulate the overall effect of vascular recovery from limb ischemia. WT C57BL/6 mice were treated with the O-GlcNAcylation inhibitor. OSMI4 (10 mg/kg), or O-GlcNAcylation enhancer. TMG (10 mg/kg) 0, 1, 2 days post-surgery (FIG. 19A).

ischemic hindlimb model = ischemic hindlimb model in fibroblast lineage tracing Fsp1-Cre: R26R-EYFP mice; assay type: in vivo, mouse; conditions: ischemic hindlimb
Protocol: Using established transdifferentiation protocol and metabolomics profiling to assess the global metabolic changes during transdifferentiation. […] To determine the role of this metabolite in transdifferentiation, the effect of Thiamet G was assessed, an inhibitor of OGA, which enhances O-GlcNAcylation. Thiamet G increased transdifferentiation efficiency in vitro. In a fibroblast lineage tracing mice, Fsp1-Cre: R26R-EYFP mice, Thiamet G increased tissue O-glycnacylation, increased capillary density and limb perfusion, and increased the number of fibroblasts transdifferentiating into endothelial cells (i.e. FSP+CD31+ cell) in an ischemic hindlimb model.
Angiogenic transdifferentiation in limb ischemia. A fibroblast lineage tracing mouse model (Fsp1-Cre: R26R-EYFP) was used to detect transdifferentiation in vivo in a murine model of limb ischemia (Meng, S., et al., Circulation, 2020. 142 (17): p. 1647-1662). […] This population is abolished when the mice are treated with anti-inflammatory drugs, such as dexamethasone. Intriguingly, the disappearance of these cells is associated with a reduction in perfusion recovery and worsening clinical scores. Similar results are achieved when inflammatory signaling is impaired, as in Fsp1-Cre: Rela flox/flox mice. In these animals, NFκB signaling is blocked in the Fsp1+fibroblasts, associated with a dramatic reduction in transdifferentiated fibroblasts (i.e. YFP+CD144+ cells), and impaired perfusion (Meng. S., et al., Circulation, 2020. 142 (17): p. 1647-1662). […] Cluster 8 produced angiogenic cytokines, whereas Cluster 5 expressed genes associated with EC identity (i.e CD144). But only Cluster 5 could generate EC-like networks in Matrigel whereas other fibroblasts, including Cluster 8 fibroblasts, formed nodal structures typical of fibroblasts in Matrigel. The data support the idea that transdifferentiation may occur in vivo with tissue ischemia, and is dependent on inflammatory signaling. This model can be used to study the contribution of O-GlcNAcylation in transdifferentiation and limb ischemia recovery in vivo. A similar lineage tracing approach can be used with tamoxifen-inducible Col1A2-Cre/ERT: R26R-tdTomato mouse strain to study the contribution of O-GlcNAcylation in transdifferentiation and limb ischemia recovery in vivo.
To determine if O-GlcNAcylation enhances revascularization through transdifferentiation, fibroblasts lineage tracing Fsp1-Cre: R26R-EYFP mice strain were utilized where it was previously observed the in situ transdifferentiation phenomenon (FIG. 20A). In this model, all the fibroblasts expressing Fsp1 (fibroblast-specific protein1) are marked with YFP. With this model, a significant increase in the FSP-expressing cell progeny in the ischemic limb was identified compared with the sham-operated limb 3 days after the femoral artery ligation was perform (FIG. 20A) and compare the YFP+ cells over the different time points (FIG. 20A). The percentage of the YFP+CD31+CD11b-cell population which is considered the transdifferentiation population was analyzed further. […] To determine the role of the O-GlcNAcylation on the transdifferentiation, the Fsp1-Cre: R26R-EYFP mice that are undergoing vascular recovery with OSMI were treated, and the transdifferentiation population in the limb muscle tissue 7 days post-surgery was analyzed.

accessible chromatin = experiment: ATAC seq chromatin accessibility in fibroblasts; assay type: cell-based
From the text: Chromatin accessibility mapping is a powerful approach to identify sites of open chromatin (i.e. to infer sites of active transcription). In ATAC-seq, a Tn5 transposase inserts sequencing adapters into accessible DNA (‘tagmentation’). […] In the right panel, exposure of the fibroblasts to polyIC increases the average length (KB) of open chromatin.
Identify the role of O-GlcNAcylation in DNA accessibility. […] However, it is unknown if this occurs during transdifferentiation of fibroblasts to iECs. […] To test if O-GlcNAcylation controls this process.

H3.3 deposition = experiment: H3.3-SNAP tagging, quench-chase-pulse TMR-Star labeling; assay type: cell-based; conditions: vs control
From the text: To identify the role of O-GlcNAcylation of histone variant h3.3 chaperone protein, HIRA, on transdifferentiation. The effects of O-GlcNAcylation on proteins that may be involved in the epigenetic regulation of transdifferentiation can be assessed. Nucleosome turnover is known to be tightly interrelated with DNA accessibility, and histone variant h3.3 is a hallmark of regulatory regions in the mammalian genome and is required to establish open chromatins. HIRA is the chaperone for h3.3, it forms a complex with other subunits, including ASF1. UBN, and CABIN, and is responsible for h3.3 deposition on the chromatin. OGT interacts with and O-GlcNAcylates HIRA, both of which are critical for the formation of the HIRA-h3.3 complex and h3.3 deposition and its dependent gene activation. […] The role of HIRA in transdifferentiation with fibroblasts that have HIRA knocked down or overexpressed can be determined. […] Thereafter, the de novo deposited SNAP-h3.3 will be pulse-labeled with the TMR-Star, which is a readily detectable and quantifiable red-fluorescent substrate. […]
To test whether innate immune activation enhances the H3.3 deposition in the chromatin, the H3.3-SNAP tagging system was generated where the newly synthesized H3.3 will be detected by fluorescent TMR-Star labeling with quench-chase-pulse strategy.

O-GlcNAcylated proteins = experiment: Click-it O-GlcNAc enzymatic labeling and detection assay; assay type: cell-based; conditions: 3 days vs vehicle, nuclear, cytoplasmic, whole-cell lysates
Protocol: (§1) Cellular O-GlcNAcylation is elevated during transdifferentiation. […] TLR3 activation increases DNA accessibility and facilitates transdifferentiation. Other forms of inflammatory activation also increase DNA accessibility (as with RIG1 activation). […] To determine if the increase in UDP-GlcNAc is associated with an increase in O-GlcNAcylation, cells were treated with PolyI:C or vehicle for 3 days, then the O-GlcNAcylated proteins in the nuclear (N), cytoplasmic (C), or whole-cell (W) lysates were enzymatically labeled with azido-modified galactose (GalNAz), which were further detected by click-it chemistry using a biotinylated alkyne and Western.
To determine if the increase in UDP-GlcNAc is associated with an increase in O-GlcNAcylation, cells were treated with Poly I:C or vehicle for 3 days, then the O-GlcNAcylated proteins in the nuclear (N), cytoplasmic (C), or whole-cell (W) lysates were enzymatically labeled with azido-modified galactose (GalNAz), which were further detected by click-it chemistry using a biotinylated alkyne and Western.

HIRA-H3.3 complex = experiment: immunoprecipitation using HIRA antibody; assay type: cell-based; conditions: after Poly I:C treatment
From the text: The histone variant h3.3 is a replacement for its canonical form of h3.1 and h3.2 in the nucleosome. Its deposition is usually associated with transcription activation and enhanced DNA accessibility. The complex that is responsible for h3.3 deposition is called HIRA complex which consists of HIRA. UBN, and cabin as the histone chaperone proteins. The HIRA O-GlcNAcylation is known to be critical for its function in H3.3 deposition. During the vascular recovery in the WT mice, the level of HIRA complex subunits, including ASFIA. HIRA. UBN, as well as the H3.3 deposition are increased (FIG. 22A). The HIRA-H3.3 pathway in the fibroblast progeny cells is activated, especially in the limbs recovering from ischemia 3- and 7-days post-surgery compared with the non-YFP+ cells (FIG. 22B). […] An in vitro system to test whether the HIRA-H3.3 pathway is activated during transdifferentiation was used.

MEFs = conditions: Chanda et al. 2019; cited from earlier work
UDP-GlcNAc = experiment: LC-MS-based metabolomic analysis of fibroblasts undergoing transdifferentiation; assay type: cell-based, human; conditions: 30 ng/ml Poly I:C with induction medium, 0, 1, 3 days
Protocol: as §1
To profile the global metabolic changes during transdifferentiation, untargeted metabolomics with BJ human fibroblast cells undergoing transdifferentiation protocol was performed and treated with 30 ng/ml Poly I:C with the induction medium for 0, 1, and 3 days. Over 100 metabolites were identified from the LC-MS-based metabolomic analysis. […] UDP-GlcNAc is the substrate for O-GlcNAcylation and is the end-product of the hexosamine biosynthesis pathway (HBP).

BJ fibroblasts [3] = conditions: PolyI:C alone, without endothelial growth factors; cited from earlier work

Compound	iEC yield (number of CD31 expressing iECs generated during transdifferentiation) (BJ fibroblasts [1])	iEC yield (number of CD31 expressing iECs generated during transdifferentiation) (BJ fibroblasts [1]; listed as Thiamet G)	recovery of blood flow post femoral artery ligation (revascularization) [2]	capillary density (ischemic hindlimb model)	limb perfusion (ischemic hindlimb model)	number of fibroblasts transdifferentiating into endothelial cells (FSP+CD31+ cell) (ischemic hindlimb model)	tissue O-glycnacylation (ischemic hindlimb model)	chromatin accessibility (open chromatin around TSS) (accessible chromatin)	chromatin accessibility (open chromatin around TSS) (accessible chromatin; listed as polyIC)	H3.3 deposition (H3.3 deposition)	O-GlcNAcylation (O-GlcNAcylated proteins)	O-GlcNAcylation (O-GlcNAcylated proteins; listed as Poly I:C)	HIRA interaction with UBN and H3.3 (HIRA-H3.3 complex)	DNA accessibility (MEFs)	UDP-GlcNAc level (UDP-GlcNAc)	UDP-GlcNAc level (UDP-GlcNAc; listed as Poly I:C)	transdifferentiation of fibroblasts to endothelial cells (BJ fibroblasts [3])
[N-]=[N+]=CC(=O)CC[C@H](N)C(=O)O [DON]	decreases; also recorded: impair	–	–	–	–	–	–	–	–	–	–	–	–	–	–	–	–
CCNC1=NC2C(OC(CO)C(O)C2O)S1 (stereo not drawn) [TMG, 2-(ethylamino)-5-(hydroxymethyl)-5,6,7,7a-tetrahydro-3aH-pyrano[3,2-d][1,3]thiazole-6,7-diol]	increases	increased	enhanced recovery; also recorded: enhances	increased	increased	increased	increased	–	–	–	–	–	–	–	–	–	–
Polyinosinic:polycytidylic acid [PolyI:C]	–	–	–	–	–	–	–	more accessible chromatin regions	increases	enhances	elevation primarily occurs in nuclear proteins; also recorded: augmentation	elevation	enhanced	enhances	highly elevated; also recorded: up-regulated	consistently increases	does not occur

— patent publication US20250114337A1, “METHODS FOR VASCULAR REGENERATION AND WOUND TREATMENT” (THE METHODIST HOSPITAL, priority 2022, published 2025)
